Source: patent US20250066341A1 (CHIESI FARMACEUTICI S.P.A., priority 2021, published 2025)

Target: T1, human recombinant LPA1 expressed in CHO cells (Homo sapiens, UniProt Q92633)
T1 construct: expressed in transfected cells; host or cells: CHO cells (CHO-hLPA1 cell line)
Test: FLIPR calcium mobilization assay, LPA1 antagonism in CHO-hLPA1 cells
Format: cell-based
Conditions: inhibition of LPA EC80 Ca2+ response, 30 min pre-incubation, expressed as range of activity
Protocol: The effectiveness of compounds of the present invention as LPA1 antagonist can be determined at the human recombinant LPA1 expressed in CHO cells, using a FLIPR assay in 384 well format.
CHO-hLPA1 cell lines are cultured in a humidified incubator at 5% C02 in DMEM/F-12 (1:1) MIXTURE with 2 mM Glutamax, supplemented with 10% of Foetal Bovine Serum, 1 mM Sodium Pyruvate, 11 mM Hepes and 1× Penicillin/Streptomycin. […] Serial dilutions (1:3 or 1:4, 11 points CRC) of compounds are performed in 100% DMSO at 200× the final concentration. […] The final concentration of DMSO in the assay will be 0.5% in each well. Medium is removed by aspiration and cells are then incubated with 30 μl of a loading solution containing 5 μM of the cytoplasmic Ca2+ indicator Cal-520 AM in Assay Buffer containing 2.5 mM probenecid for 30 min at 37° C. incubator (cell loading). The loaded cell plates are transferred into the FLIPR instrument and calcium responses are monitored during the on-line addition protocols. For testing of compounds, after the cell loading, 10 μl/well of 4× antagonists' solution was added onto the cells. After 30 min pre-incubation (at 37° C.), 10 μl/well of 5× concentrated LPA EC80 was added and Ca2+ mobilization responses was followed during the on-line addition protocol. Intracellular peak fluorescence values subtracted by baseline fluorescence are exported and analysed to determine IC50 values, respectively. The calcium response is expressed as percentage of the maximal inhibition of the EC80 agonist response.
The raw data (peak height expressed as relative fluorescence units) are normalized and transformed into “percent of inhibition”. Curve fitting and pIC50 (−LogIC50) estimations are carried out using a four-parameter logistic model using XLfit Software.

T1 sequence (Q92633 whole entry): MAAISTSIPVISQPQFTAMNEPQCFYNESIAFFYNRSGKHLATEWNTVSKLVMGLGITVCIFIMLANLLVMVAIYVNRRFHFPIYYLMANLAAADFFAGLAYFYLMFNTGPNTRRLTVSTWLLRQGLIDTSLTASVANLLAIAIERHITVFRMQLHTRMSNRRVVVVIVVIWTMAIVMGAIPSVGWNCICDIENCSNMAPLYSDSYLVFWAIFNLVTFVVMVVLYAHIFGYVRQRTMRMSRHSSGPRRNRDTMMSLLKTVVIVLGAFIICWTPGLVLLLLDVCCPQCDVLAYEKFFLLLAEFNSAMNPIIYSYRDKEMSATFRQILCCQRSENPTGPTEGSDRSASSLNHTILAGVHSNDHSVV

| SMILES | IC50 |
| --- | --- |
| Cc1nc(-c2nnn(C)c2CNC(=O)O[C@H](C)c2ccccc2Cl)ccc1NC(=O)[C@H]1CCCC[C@@H]1C(=O)O [Compound 42, (1S,2S)-2-((6-(5-(((((R)-1-(2-chlorophenyl)ethoxy)carbonyl)amino)methyl)-1-methyl-1H-1,2,3-triazol-4-yl)-2-methylpyridin-3-yl)carbamoyl)cyclohexane-1-carboxylic acid] | 250 to 600 nM |
| Cc1nc(-c2nnn(C)c2CNc2nccc(C3CCCCC3)n2)ccc1NC(=O)[C@H]1CCCC[C@@H]1C(=O)O [Compound 44, (1S,2S)-2-((6-(5-(((4-cyclohexylpyrimidin-2-yl)amino)methyl)-1-methyl-1H-1,2,3-triazol-4-yl)-2-methylpyridin-3-yl)carbamoyl)cyclohexane-1-carboxylic acid] | < 50 nM |
| Cc1nc(-c2onc(C)c2COC(=O)N(C)C2CCCC2)ccc1NC(=O)[C@H]1CCCC[C@@H]1C(=O)O [Compound 45, (1S,2S)-2-((6-(4-(((cyclopentyl(methyl)carbamoyl)oxy)methyl)-3-methylisoxazol-5-yl)-2-methylpyridin-3-yl)carbamoyl)cyclohexane-1-carboxylic acid] | 50 to 250 nM |
| Cc1nc(-c2onc(C)c2Nc2cncc(C3CCCC3)n2)ccc1OC[C@H]1CCCC[C@@H]1C(=O)O [Compound 46, (1S,2S)-2-(((6-(4-((6-cyclopentylpyrazin-2-yl)amino)-3-methylisoxazol-5-yl)-2-methylpyridin-3-yl)oxy)methyl)cyclohexane-1-carboxylic acid] | < 50 nM |
| CCOc1cncc(Nc2c(C)noc2-c2ccc(OC[C@H]3CCCC[C@@H]3C(=O)O)cn2)n1 [Compound 47, (1S,2S)-2-(((6-(4-((6-ethoxypyrazin-2-yl)amino)-3-methylisoxazol-5-yl)pyridin-3-yl)oxy)methyl)cyclohexane-1-carboxylic acid] | < 50 nM |
| Cc1noc(-c2ccc(OC[C@H]3CCCC[C@@H]3C(=O)O)cn2)c1Nc1cncc(OC(C)C)n1 [Compound 48, (1S,2S)-2-(((6-(4-((6-isopropoxypyrazin-2-yl)amino)-3-methylisoxazol-5-yl)pyridin-3-yl)oxy)methyl)cyclohexane-1-carboxylic acid] | < 50 nM |
| Cc1noc(-c2ccc(OC[C@H]3CCCC[C@@H]3C(=O)O)cn2)c1Nc1cncc(OCC(F)(F)F)n1 [Compound 49, (1S,2S)-2-(((6-(3-methyl-4-((6-(2,2,2-trifluoroethoxy)pyrazin-2-yl)amino)isoxazol-5-yl)pyridin-3-yl)oxy)methyl)cyclohexane-1-carboxylic acid] | < 50 nM |
| Cc1noc(-c2ccc(OC[C@H]3CCCC[C@@H]3C(=O)O)cn2)c1Nc1cncc(OCC(C)C)n1 [Compound 50, (1S,2S)-2-(((6-(4-((6-isobutoxypyrazin-2-yl)amino)-3-methylisoxazol-5-yl)pyridin-3-yl)oxy)methyl)cyclohexane-1-carboxylic acid] | < 50 nM |
| CCOc1cncc(Nc2c(C)noc2-c2ccc(OC[C@H]3CCCC[C@@H]3C(=O)O)c(C)n2)n1 [Compound 51, (1S,2S)-2-(((6-(4-((6-ethoxypyrazin-2-yl)amino)-3-methylisoxazol-5-yl)-2-methylpyridin-3-yl)oxy)methyl)cyclohexane-1-carboxylic acid] | < 50 nM |
| Cc1nc(-c2onc(C)c2Nc2cncc(OC(C)C)n2)ccc1OC[C@H]1CCCC[C@@H]1C(=O)O [Compound 52, (1S,2S)-2-(((6-(4-((6-isopropoxypyrazin-2-yl)amino)-3-methylisoxazol-5-yl)-2-methylpyridin-3-yl)oxy)methyl)cyclohexane-1-carboxylic acid] | < 50 nM |

The next lines start with the values.

| IC50 | SMILES |
| --- | --- |
| 50 to 250 nM | COc1cncc(Nc2c(C)noc2-c2ccc(OC[C@H]3CCCC[C@@H]3C(=O)O)c(C)n2)n1 [Compound 53, (1S,2S)-2-(((6-(4-((6-methoxypyrazin-2-yl)amino)-3-methylisoxazol-5-yl)-2-methylpyridin-3-yl)oxy)methyl)cyclohexane-1-carboxylic acid] |
| < 50 nM | CCCc1cncc(Nc2c(C)noc2-c2ccc(OC[C@H]3CCCC[C@@H]3C(=O)O)c(C)n2)n1 [Compound 54, (1S,2S)-2-(((2-methyl-6-(3-methyl-4-((6-propylpyrazin-2-yl)amino)isoxazol-5-yl)pyridin-3-yl)oxy)methyl)cyclohexane-1-carboxylic acid] |
| < 50 nM | Cc1nc(-c2onc(C)c2NS(=O)(=O)CCOc2ccc(F)cc2)ccc1OC[C@H]1CCCC[C@@H]1C(=O)O [Compound 55, (1S,2S)-2-(((6-(4-((2-(4-fluorophenoxy)ethyl)sulfonamido)-3-methylisoxazol-5-yl)-2-methylpyridin-3-yl)oxy)methyl)cyclohexane-1-carboxylic acid] |
| 250 to 600 nM | Cc1nc(-c2onc(C)c2NS(=O)(=O)c2ccccc2)ccc1OC[C@H]1CCCC[C@@H]1C(=O)O [Compound 56, (1S,2S)-2-(((2-methyl-6-(3-methyl-4-(phenylsulfonamido)isoxazol-5-yl)pyridin-3-yl)oxy)methyl)cyclohexane-1-carboxylic acid] |
| < 50 nM | Cc1nc(-c2onc(C)c2NS(=O)(=O)CCc2ccccc2)ccc1OC[C@H]1CCCC[C@@H]1C(=O)O [Compound 57, (1S,2S)-2-(((2-methyl-6-(3-methyl-4-((2-phenylethyl)sulfonamido)isoxazol-5-yl)pyridin-3-yl)oxy)methyl)cyclohexane-1-carboxylic acid] |
| < 50 nM | Cc1nc(-c2cnn(C)c2NC(=O)O[C@H](C)c2ccccc2Cl)ccc1OC[C@H]1CCCC[C@@H]1C(=O)O [Compound 58, (1S,2S)-2-(((6-(5-((((R)-1-(2-chlorophenyl)ethoxy)carbonyl)amino)-1-methyl-1H-pyrazol-4-yl)-2-methylpyridin-3-yl)oxy)methyl)cyclohexane-1-carboxylic acid] |
| 50 to 250 nM | Cc1noc(-c2ccc(OC[C@H]3CCCC[C@@H]3C(=O)O)cc2)c1NC(=O)O[C@H](C)c1cccnc1 [Compound 59, (1S,2S)-2-((4-(3-methyl-4-((((R)-1-(pyridin-3-yl)ethoxy)carbonyl)amino)isoxazol-5-yl)phenoxy)methyl)cyclohexane-1-carboxylic acid] |
| < 50 nM | Cc1nc(-c2cnn(C)c2CNc2nccc(-c3ccccc3)n2)ccc1OC[C@H]1CCCC[C@@H]1C(=O)O [Compound 61, (1S,2S)-2-(((2-methyl-6-(1-methyl-5-(((4-phenylpyrimidin-2-yl)amino)methyl)-1H-pyrazol-4-yl)pyridin-3-yl)oxy)methyl)cyclohexane-1-carboxylic acid] |
| < 50 nM | Cc1nc(-c2nnn(C)c2CNC(=O)OCc2ccccc2)ccc1OC[C@H]1CCCC[C@@H]1C(=O)O [Compound 62, (1S,2S)-2-(((6-(5-((((benzyloxy)carbonyl)amino)methyl)-1-methyl-1H-1,2,3-triazol-4-yl)-2-methylpyridin-3-yl)oxy)methyl)cyclohexane-1-carboxylic acid] |
| < 50 nM | Cc1nc(-c2nnn(C)c2CNC(=O)O[C@H](C)c2cccnc2Cl)ccc1OC[C@H]1CCCC[C@@H]1C(=O)O [Compound 63, (1S,2S)-2-(((6-(5-(((((R)-1-(2-chloropyridin-3-yl)ethoxy)carbonyl)amino)methyl)-1-methyl-1H-1,2,3-triazol-4-yl)-2-methylpyridin-3-yl)oxy)methyl)cyclohexane-1-carboxylic acid] |
